Test results published in patent publication US10874743B2, “IRAK degraders and uses thereof” (Kymera Therapeutics, Inc., priority 2017, dated 2020).

Tests used:
IRAK4 = target: T1, IRAK4 (Homo sapiens, UniProt Q9NWZ3); assay: OCI-LY-10 MSD assay for IRAK4 DC50; assay type: cell-based; parameters: endogenous in cells; host or cells: OCI-LY10; conditions: OCI-LY10 cells, 4 hr incubation, concentration required to degrade 50% of protein
T1 sequence (Q9NWZ3 1-460): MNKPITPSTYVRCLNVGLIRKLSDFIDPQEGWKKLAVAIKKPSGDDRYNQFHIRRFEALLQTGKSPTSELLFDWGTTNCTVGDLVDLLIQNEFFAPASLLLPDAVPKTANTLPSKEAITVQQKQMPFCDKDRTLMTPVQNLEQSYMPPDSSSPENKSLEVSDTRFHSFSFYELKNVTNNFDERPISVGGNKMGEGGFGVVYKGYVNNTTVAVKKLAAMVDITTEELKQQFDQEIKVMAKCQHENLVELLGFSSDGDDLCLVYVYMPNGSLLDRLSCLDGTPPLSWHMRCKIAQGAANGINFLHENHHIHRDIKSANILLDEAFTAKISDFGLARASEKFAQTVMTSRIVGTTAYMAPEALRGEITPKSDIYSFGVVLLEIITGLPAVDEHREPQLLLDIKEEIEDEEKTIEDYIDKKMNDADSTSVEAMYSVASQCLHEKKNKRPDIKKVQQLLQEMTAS
Summary of the method: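 IRAK4 level was quantified by MSD electrochemiluminescence (anti-IRAK4 capture antibody, rabbit anti-IRAK4 detection antibody) in RIPA lysates of OCI-Ly10 cells. Cells had been treated with compound for 4 hr (8-point, 3-fold serial dilution). Remaining protein versus concentration was fitted to a sigmoidal curve to give DC50.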

OCI-LY10 cells = assay: OCI-LY-10 CTG cell viability assay (EC50); assay type: cell-based; conditions: Homo sapiens, 96 h, CellTiter-Glo cell viability, 4 days incubation, top concentration 10 μM, read-out: OCI-LY10 IRAK4 EC50
Summary of the method: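 OCI-LY10 cells were exposed to a 9-dose, 1:3 series (top 10 μM, 0.2% DMSO) for 4 days at 37 °C. Viability was measured by CellTiter-Glo luminescence, and EC50 came from a three-parameter logistic fit.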

Compound	DC50 (IRAK4)	EC50 (OCI-LY10 cells)
Cn1c(=O)n(C2CCC(=O)NC2=O)c2ccc(CNC(=O)OCCCNCc3ccc(-n4cc(NC(=O)c5coc(-c6ccnc(NCC7CC7)c6)n5)c(C(F)F)n4)cc3)cc21 (centres unmarked) [I-545]	< 50 nM	< 50 nM
O=C1CCC(n2c(=O)oc3c(CCCOCCCNCc4ccc(-n5cc(NC(=O)c6coc(-c7ccnc(NCC8CC8)c7)n6)c(C(F)F)n5)cc4)cccc32)C(=O)N1 (centres unmarked) [I-548]	< 50 nM	< 50 nM
O=C1CCC(n2c(=O)oc3cc(CCCOCCCNCc4ccc(-n5cc(NC(=O)c6coc(-c7ccnc(NCC8CC8)c7)n6)c(C(F)F)n5)cc4)ccc32)C(=O)N1 (centres unmarked) [I-549]	< 50 nM	< 50 nM
O=C1CCC(n2c(=O)oc3cc(CCCOCCOCCNCc4ccc(-n5cc(NC(=O)c6coc(-c7ccnc(NCC8CC8)c7)n6)c(C(F)F)n5)cc4)ccc32)C(=O)N1 (centres unmarked) [I-550]	< 50 nM	< 50 nM
O=C1CCC(n2c(=O)oc3c(CCCOCCOCCNCc4ccc(-n5cc(NC(=O)c6coc(-c7ccnc(NCC8CC8)c7)n6)c(C(F)F)n5)cc4)cccc32)C(=O)N1 (centres unmarked) [I-551]	< 50 nM	< 50 nM
O=C1CCC(n2c(=O)n(CCOCCOCCNCc3ccc(-n4cc(NC(=O)c5coc(-c6ccnc(NCC7CC7)c6)n5)c(C(F)F)n4)cc3)c3ccccc32)C(=O)N1 (centres unmarked) [I-552]	< 50 nM	< 50 nM
CN[C@@H](C)C(=O)N[C@H](C(=O)N1CCC[C@H]1c1nc(C(=O)c2cccc(OCCOCCOCCOCCOCCOCCNCc3ccc(-n4cc(NC(=O)c5coc(-c6ccnc(NCC7CC7)c6)n5)c(C(F)F)n4)cc3)c2)cs1)C1CCCCC1 [I-553]	500 to 1000 nM	> 1000 nM
CN[C@@H](C)C(=O)N[C@H](C(=O)N1CCC[C@H]1c1nc(C(=O)c2cccc(OCCOCCOCCOCCOCCNCc3ccc(-n4cc(NC(=O)c5coc(-c6ccnc(NCC7CC7)c6)n5)c(C(F)F)n4)cc3)c2)cs1)C1CCCCC1 [I-555]	500 to 1000 nM	> 1000 nM
CN[C@@H](C)C(=O)N[C@H](C(=O)N1CCC[C@H]1c1nc(C(=O)c2cccc(OCCOCCOCCNCc3ccc(-n4cc(NC(=O)c5coc(-c6ccnc(NCC7CC7)c6)n5)c(C(F)F)n4)cc3)c2)cs1)C1CCCCC1 [I-556]	500 to 1000 nM	> 1000 nM
O=C1CCC(N2Cc3cc(CNC(=O)OCCNCc4ccc(-n5cc(NC(=O)c6coc(-c7ccnc(NCC8CC8)c7)n6)c(C(F)F)n5)cc4)ccc3C2=O)C(=O)N1 (centres unmarked) [I-558]	< 50 nM	< 50 nM
CN1CCN(C(=O)c2nn(-c3ccc(CNCCCCOCCCCc4ccc5c(c4)n(C)c(=O)n5C4CCC(=O)NC4=O)cc3)cc2NC(=O)c2coc(-c3ccnc(NCC(F)(F)F)c3)n2)CC1 (centres unmarked) [I-559]	> 1000 nM	500 to 1000 nM
Cn1c(=O)n(C2CCC(=O)NC2=O)c2ccc(N3CCN(CCOCCNCc4ccc(-n5cc(NC(=O)c6coc(-c7ccnc(NCC(F)(F)F)c7)n6)c(C(N)=O)n5)cc4)CC3)cc21 (centres unmarked) [I-564]	100 to 500 nM	> 1000 nM
NC(=O)c1nn(-c2ccc(CNCCCOCCCc3ccc4c(c3)oc(=O)n4C3CCC(=O)NC3=O)cc2)cc1NC(=O)c1coc(-c2ccnc(NCC(F)(F)F)c2)n1 (centres unmarked) [I-567]	< 50 nM	500 to 1000 nM
NC(=O)c1nn(-c2ccc(CNCCOCCOCCCc3ccc4c(c3)oc(=O)n4C3CCC(=O)NC3=O)cc2)cc1NC(=O)c1coc(-c2ccnc(NCC(F)(F)F)c2)n1 (centres unmarked) [I-568]	< 50 nM	100 to 500 nM
Cn1c(=O)n(C2CCC(=O)NC2=O)c2ccc(CCCN3CCO[C@H](CNCc4ccc(-n5cc(NC(=O)c6coc(-c7ccnc(NCC(F)(F)F)c7)n6)c(C(N)=O)n5)cc4)C3)cc21 (some centres unmarked) [I-572]	< 50 nM	100 to 500 nM
Cn1c(=O)n(C2CCC(=O)NC2=O)c2ccc(CCCN3CCO[C@@H](CNCc4ccc(-n5cc(NC(=O)c6coc(-c7ccnc(NCC8CC8)c7)n6)c(C(F)F)n5)cc4)C3)cc21 (some centres unmarked) [I-574]	< 50 nM	< 50 nM

Compound	DC50 (IRAK4)	EC50 (OCI-LY10 cells)
Cn1c(=O)n(C2CCC(=O)NC2=O)c2ccc(CCCN3CCO[C@H](CCNCc4ccc(-n5cc(NC(=O)c6coc(-c7ccnc(NCC(F)(F)F)c7)n6)c(C(N)=O)n5)cc4)C3)cc21 (some centres unmarked) [I-576]	< 50 nM	< 50 nM
NC(=O)c1nn(-c2ccc(CNCCOCCOCCOC(=O)NCc3ccc4c(c3)CN(C3CCC(=O)NC3=O)C4=O)cc2)cc1NC(=O)c1coc(-c2ccnc(NCC(F)(F)F)c2)n1 (centres unmarked) [I-579]	100 to 500 nM	> 1000 nM
O=C1CCC(N2C[C@H](c3ccc(C#CCCOCCCNCc4ccc(-n5cc(NC(=O)c6coc(-c7ccnc(NCC8CC8)c7)n6)c(C(F)F)n5)cc4)cc3)OC2=O)C(=O)N1 (some centres unmarked) [I-580]	50 to 100 nM	< 50 nM
Cn1c(=O)n(C2CCC(=O)NC2=O)c2ccc(CN3CCN(CCO[C@H]4C[C@H](NCc5ccc(-n6cc(NC(=O)c7coc(-c8ccnc(NCC9CC9)c8)n7)c(C(F)F)n6)cc5)C4)CC3)cc21 (some centres unmarked) [I-583]	< 50 nM	< 50 nM
O=C1CCC(N2C[C@H](c3cccc(C#CCN4CCO[C@@H](CNCc5ccc(-n6cc(NC(=O)c7coc(-c8ccnc(NCC9CC9)c8)n7)c(C(F)F)n6)cc5)C4)c3)OC2=O)C(=O)N1 (some centres unmarked) [I-584]	< 50 nM	50 to 100 nM
O=C1CCC(N2C[C@H](c3ccc(C#CCN4CCO[C@@H](CNCc5ccc(-n6cc(NC(=O)c7coc(-c8ccnc(NCC9CC9)c8)n7)c(C(F)F)n6)cc5)C4)cc3)OC2=O)C(=O)N1 (some centres unmarked) [I-585]	< 50 nM	< 50 nM
Cn1c(=O)n(C2CCC(=O)NC2=O)c2cccc(CCCN3CCO[C@H](CNCc4ccc(-n5cc(NC(=O)c6coc(-c7ccnc(NCC8CC8)c7)n6)c(C(F)F)n5)cc4)C3)c21 (some centres unmarked) [I-587]	< 50 nM	< 50 nM
Cn1c(=O)n(C2CCC(=O)NC2=O)c2cccc(CCCN3CCO[C@@H](CNCc4ccc(-n5cc(NC(=O)c6coc(-c7ccnc(NCC8CC8)c7)n6)c(C(F)F)n5)cc4)C3)c21 (some centres unmarked) [I-588]	< 50 nM	< 50 nM
O=C1CCC(n2c(=O)oc3c(CCCN4CCO[C@@H](CNCc5ccc(-n6cc(NC(=O)c7coc(-c8ccnc(NCC9CC9)c8)n7)c(C(F)F)n6)cc5)C4)cccc32)C(=O)N1 (some centres unmarked) [I-589]	< 50 nM	< 50 nM
O=C1CCC(n2c(=O)oc3c(CCCN4CCO[C@H](CNCc5ccc(-n6cc(NC(=O)c7coc(-c8ccnc(NCC9CC9)c8)n7)c(C(F)F)n6)cc5)C4)cccc32)C(=O)N1 (some centres unmarked) [I-590]	< 50 nM	< 50 nM
CN(CC[C@H]1CN(CCCc2ccc3c(c2)n(C)c(=O)n3C2CCC(=O)NC2=O)CCO1)Cc1ccc(-n2cc(NC(=O)c3coc(-c4ccnc(NCC5CC5)c4)n3)c(C(F)F)n2)cc1 (some centres unmarked) [I-592]	< 50 nM	< 50 nM
Cn1c(=O)n(C2CCC(=O)NC2=O)c2cccc(CCCN3CCO[C@H](CNCc4ccc(-n5cc(NC(=O)c6coc(-c7ccnc(NCC(F)(F)F)c7)n6)c(C(N)=O)n5)cc4)C3)c21 (some centres unmarked) [I-593]	< 50 nM	100 to 500 nM
CN(Cc1ccc(-n2cc(NC(=O)c3coc(-c4ccnc(NCC5CC5)c4)n3)c(C(F)F)n2)cc1)C[C@@H]1CN(CCCc2ccc3c(c2)n(C)c(=O)n3C2CCC(=O)NC2=O)CCO1 (some centres unmarked) [I-599]	100 to 500 nM	< 50 nM
Cn1c(=O)n(C2CCC(=O)NC2=O)c2ccc(CCCN3CCO[C@@H](CNCc4ccc(-n5cc(NC(=O)c6coc(-c7ccnc(NCC(F)(F)F)c7)n6)c(C(F)F)n5)cc4)C3)cc21 (some centres unmarked) [I-614]	50 to 100 nM	100 to 500 nM
CN[C@@H](C)C(=O)N[C@H](C(=O)N1Cc2cc(OCCOCCOCCOCCOCCOCCNCc3ccc(-n4cc(NC(=O)c5coc(-c6ccnc(NCC7CC7)c6)n5)c(C(F)F)n4)cc3)ccc2C[C@H]1C(=O)N[C@@H]1CCCc2ccccc21)C(C)(C)C [I-680, 2-[2-(Cyclopropylmethylamino)-4-pyridyl]-N-[3-(difluoromethyl)-1-[4-[[2-[2-[2-[2-[2-[2-[[(3S)-2-[(2S)-3,3-dimethyl-2-[[(2S)-2-(methylamino)propanoyl]amino]butanoyl]-3-[[(1R)-tetralin-1-yl]carbamoyl]-3,4-dihydro-1H-isoquinolin-7-yl]oxy]ethoxy]ethoxy]ethoxy]ethoxy]ethoxy]ethylamino]methyl]-phenyl]pyrazol-4-yl]oxazole-4-carboxamide]	> 1000 nM	> 1000 nM
